Key:
[1] = for weight loss during the initial desorption cycle: initial desorption scan 50-0.5% RH; for solid form of the product obtained after the GVS analysis (XRPD): XRPD after completion of the GVS isotherm
Experimental: Gravimetric Vapour Isotherm (GVS) Analysis: Sorption isotherms were obtained using a Hiden Isochema moisture sorption analyser (model IGAsorp), controlled by IGAsorp Systems Software V6.50.48. The sample was maintained at a constant temperature (25° C.) by the instrument controls. The humidity was controlled by mixing streams of dry and wet nitrogen, with a total flow of 250 ml·min^−1. The instrument was verified for relative humidity content by measuring three calibrated Rotronic salt solutions (10-50-80%). The weight change of the sample was monitored as a function of humidity by a microbalance (accuracy +/−0.005 mg). A defined amount of sample was placed in a tared mesh stainless steel basket under ambient conditions. The sample was loaded at 40% RH and 25° C. (typical room conditions). The sample was initially held at 50% RH for ˜80 minutes before the initial desorption cycle was commenced. A moisture sorption isotherm was acquired as outlined in Table 1 (2 scans giving 1 complete cycle). The standard isotherm was collected at a constant temperature (25° C.) and at 10% RH intervals over a 0.5-90% range (80 minutes for each humidity level). Data analysis was undertaken in Microsoft Excel.
The sample was recovered after completion of the isotherm and re-analysed by XRPD.

[2] = cited from earlier work
[3] = Class IV indicates low solubility and low permeability API; cited from earlier work
[4] = marketed nanoparticulate formulation; cited from earlier work

| Compound | weight loss during the initial desorption cycle ([1]; GVS, 25° C.) | hygroscopicity of the obtained product ([1]; GVS, 25° C., product obtained after initial desorption) | water adsorbed by the obtained product at high relative humidity ([1]; GVS, 25° C., product obtained after initial desorption (converted to H2O cocrystal), high relative humidity) | solid form of the product obtained after the GVS analysis (XRPD) [1] | weight loss over the total desorption-adsorption-desorption cycles ([1]; GVS, 25° C., 0.5-90% RH) | solubility in acetonitrile ([2]; acetonitrile) | solubility in ethanol ([2]; ethanol) | solubility in isopropyl acetate ([2]; isopropyl acetate) | solubility in water ([2]; water) | BCS class [3] | mean absolute bioavailability [4] |
| --- | --- | --- | --- | --- | --- | --- | --- | --- | --- | --- | --- |
| CCO.C[C@@H](O[C@H]1OCCN(Cc2n[nH]c(=O)[nH]2)[C@H]1c1ccc(F)cc1)c1cc(C(F)(F)F)cc(C(F)(F)F)c1.O=C(O)[C@@H]1CCCN1 | 4.3% | not hygroscopic | 0.5% | entirely the 1:1:1 aprepitant L-proline H2O cocrystal |  |  |  |  |  |  |  |
| CCCO.C[C@@H](O[C@H]1OCCN(Cc2n[nH]c(=O)[nH]2)[C@H]1c1ccc(F)cc1)c1cc(C(F)(F)F)cc(C(F)(F)F)c1.O=C(O)[C@@H]1CCCN1 | 4.4% |  |  | entirely the 1:1:1 aprepitant L-proline H2O cocrystal | 6.3% |  |  |  |  |  |  |
| C[C@@H](O[C@H]1OCCN(Cc2nc(=O)[nH][nH]2)[C@H]1c1ccc(F)cc1)c1cc(C(F)(F)F)cc(C(F)(F)F)c1 [Aprepitant] |  |  |  |  |  | slightly soluble | sparingly soluble | sparingly soluble | practically insoluble | Class IV | 60-65% |
